How the values were obtained:
[1] = target: T1, human GCN2 full-length protein (Homo sapiens, UniProt Q9P2K8); assay: GCN2 enzyme inhibition assay (LanthaScreen TR-FRET); assay type: biochemical; conditions: GCN2 enzyme inhibitory activity at compound concentration of 3 μM; Table 3-1; 3 µM
T1 construct: purchased Carna Biosciences, Inc
Outline: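 Full-length human GCN2 was preincubated with compound for 1 hr at room temperature, then reacted for 1 hr with substrate and ATP added from a 570 μM ATP / 390 nM substrate solution (stock concentrations). Phosphorylation was detected by TR-FRET with a terbium-labelled anti-eIF2alpha antibody after 1 hr, with enzyme-free wells as control.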

[2] = system: osteosarcoma cell line U-2-OS; assay: In vitro cell proliferation inhibition assay (CellTiter-Glo, low amino acid media); assay type: cell-based; conditions: McCoy's 5A low amino acid media, 72 hr, Table 4-1
Outline: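 Cells seeded at 1000 per well in McCoy's 5A low amino acid medium (25% amino acid content), then exposed to compound for 72 h at 37° C., 5% CO2. ATP measured by CellTiter-Glo luminescence. Inhibition (%) at 100 nM calculated relative to pre-treatment and untreated control wells.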

[3] = system: ATF4 expression in CCRF-CEM tumor; assay: In vivo ATF4 expression suppression assay (Western blot of CCRF-CEM xenograft tumor) in the presence of L-asparaginase; conditions: compound 10 mg/kg oral 8 hr before tumor removal, L-asparaginase 1000 U/kg s.c. 32 hr and 8 hr before, CCRF-CEM xenograft in SCID mouse
Description: One million human acute lymphoblastic leukemia cell lines CCRF-CEM obtained from ATCC (American Type Culture Collection) were suspended in Matrigel solution (Corning) and implanted subcutaneously into 6-week-old female SCID mouse (CLEA Japan, Inc.) by injection. The mice in which the tumor engrafted to a size of about 200-1000 mm^3 tumor volume after transplantation were selected and 3 mice per group were used for the experiment. L-asparaginase (Kyowa Hakko Kogyo Co., Ltd.) was subcutaneously administered at a dose of 1000 U/kg 32 hr and 8 hr before tumor removal. A 0.5% methylcellulose suspension of the compound was orally administered at a dose of 10 mg/kg 8 hr before tumor removal. After tumor removal, protein was extracted using Lysing Matrix I tube (MP Biomedicals) containing a protein extract (10% glycerol, 1% sodium dodecyl sulfate, 62.5 mM Tris-HCl [pH 7.5], protease and phosphatase inhibitors [Complete mini and PhosSTOP, Sigma-Aldrich Co. LLC.]) and subjected to Western blot.
Protein extract solution was subjected to protein quantification with BCA Protein Assay Kit (Thermo Scientific), electrophoresed on 7.5-15% SDS-PAGE gel (DRC), and protein in the gel was transferred to PVDF membrane. The membrane was blocked with Starting Block T20 (PBS) Blocking Buffer (Thermo Scientific). […] Thereafter, chemiluminescence was performed using ImmunoStar LD (Wako Pure Chemical Industries, Ltd.), and luminescence intensity was measured by LAS-3000 image analyzer (Fuji Film Co., Ltd.). Furthermore, the expression level of ATF4 was digitized by quantifying the luminescence intensity using Multi Gauge Ver. […]
Based on the ATF4 expression level of the control group orally administered with 0.5% methylcellulose suspension free of Example compound and the treatment group orally administered with Example compound suspension, the ATF4 expression inhibition ratio (%) of the test compound at a compound dose 10 mg/kg was calculated by the following formula and the results thereof are shown in Table 6. […]

[4] = system: human acute lymphoblastic leukemia cells CCRF-CEM; assay: In vivo tumor proliferation inhibitory assay with combined use of asparaginase (CCRF-CEM xenograft); conditions: CCRF-CEM xenograft in SCID mouse
Description: One million human acute lymphoblastic leukemia cells CCRF-CEM obtained from ATCC (American Type Culture Collection) were suspended in Matrigel solution (Corning) and implanted subcutaneously into 6-week-old female SCID mouse (CLEA Japan, Inc.) by injection. The mice in which the tumor engrafted to a size of about 200 mm^3 tumor volume after transplantation were selected and 5 mice per group were used for the experiment. A 0.5% methylcellulose suspension of the compound was orally administered twice per day for 9 days. Each compound was administered twice per day and the dose was 10 mg/kg for Example 14 and Example 7, and 6 mg/kg for Example 4. L-asparaginase (Kyowa Hakko Kogyo Co., Ltd.) was subcutaneously administered once per day at a dose of 1000 U/kg. Tumor diameter was measured one day before start of the administration and day 9 of the administration, and the tumor volume was calculated by the formula 1. tumor volume=major axis×minor axis×minor axis×(½) Formula 1
Tumor proliferation inhibitory rate (%) was calculated by the formula 2. tumor proliferation inhibitory rate (%)=(1−(T9−T0)/(C9−C0))×100 Formula 2 T9: average tumor volume of test drug administration group on day 9 of administration, T0: average tumor volume of test drug administration group one day before start of administration, C9: average tumor volume of control group on day 9 of administration, C0: average tumor volume of control group one day before start of administration

T1 sequence (Q9P2K8 whole entry): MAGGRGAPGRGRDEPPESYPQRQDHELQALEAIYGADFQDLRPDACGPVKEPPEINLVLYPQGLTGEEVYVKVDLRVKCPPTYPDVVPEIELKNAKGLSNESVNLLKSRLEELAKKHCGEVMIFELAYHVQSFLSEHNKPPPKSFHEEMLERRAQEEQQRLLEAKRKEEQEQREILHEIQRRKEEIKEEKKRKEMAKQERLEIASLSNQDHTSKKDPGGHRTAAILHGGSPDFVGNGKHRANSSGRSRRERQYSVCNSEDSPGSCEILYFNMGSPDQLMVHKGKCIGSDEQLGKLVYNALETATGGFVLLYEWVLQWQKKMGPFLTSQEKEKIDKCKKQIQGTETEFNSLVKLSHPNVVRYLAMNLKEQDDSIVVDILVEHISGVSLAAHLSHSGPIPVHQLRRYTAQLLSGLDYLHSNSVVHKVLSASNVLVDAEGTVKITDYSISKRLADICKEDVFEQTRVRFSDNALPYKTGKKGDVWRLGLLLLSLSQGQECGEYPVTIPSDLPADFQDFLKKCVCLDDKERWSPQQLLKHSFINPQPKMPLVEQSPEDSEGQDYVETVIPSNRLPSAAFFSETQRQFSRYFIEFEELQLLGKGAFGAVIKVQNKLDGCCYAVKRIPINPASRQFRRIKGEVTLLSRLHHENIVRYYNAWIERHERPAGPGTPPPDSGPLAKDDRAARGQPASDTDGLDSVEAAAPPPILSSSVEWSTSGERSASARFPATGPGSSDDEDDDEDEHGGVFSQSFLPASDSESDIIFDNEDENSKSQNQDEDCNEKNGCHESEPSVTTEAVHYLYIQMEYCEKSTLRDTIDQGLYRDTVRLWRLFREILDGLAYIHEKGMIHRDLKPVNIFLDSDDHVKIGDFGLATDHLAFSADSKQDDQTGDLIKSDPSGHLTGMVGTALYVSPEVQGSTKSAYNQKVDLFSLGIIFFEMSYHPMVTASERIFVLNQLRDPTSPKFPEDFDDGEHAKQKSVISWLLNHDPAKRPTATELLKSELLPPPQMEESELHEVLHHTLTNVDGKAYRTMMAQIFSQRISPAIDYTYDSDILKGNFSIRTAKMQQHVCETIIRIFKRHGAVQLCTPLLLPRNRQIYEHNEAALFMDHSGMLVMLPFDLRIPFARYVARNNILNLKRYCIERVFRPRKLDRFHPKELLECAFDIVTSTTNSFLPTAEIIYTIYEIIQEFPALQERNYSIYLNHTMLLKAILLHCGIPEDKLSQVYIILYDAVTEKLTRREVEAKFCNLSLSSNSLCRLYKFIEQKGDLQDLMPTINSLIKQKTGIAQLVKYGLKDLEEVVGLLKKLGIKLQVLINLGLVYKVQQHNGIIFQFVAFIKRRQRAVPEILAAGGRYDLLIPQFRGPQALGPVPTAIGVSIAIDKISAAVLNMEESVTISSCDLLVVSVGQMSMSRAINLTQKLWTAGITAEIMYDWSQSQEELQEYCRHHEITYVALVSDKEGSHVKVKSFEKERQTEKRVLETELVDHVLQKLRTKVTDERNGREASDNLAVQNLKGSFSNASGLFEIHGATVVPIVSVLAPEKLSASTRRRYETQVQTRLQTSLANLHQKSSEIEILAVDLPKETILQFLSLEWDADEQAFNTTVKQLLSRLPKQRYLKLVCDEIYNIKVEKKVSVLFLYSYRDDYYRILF

Question: Which results are given for `O=S(=O)(Nc1ccc(F)c(C#Cc2cnc3[nH]ncc3c2)c1F)c1cc(Cl)ccc1Cl` [Example 14, 2,5-dichloro-N-(2,4-difluoro-3-(1H-pyrazolo[3,4-b]pyridin-5-ylethynyl)phenyl)benzenesulfonamide]?
Answer: inhibitory rate [1]: 98%; inhibitory rate [2]: 42%; in vivo ATF4 expression inhibition ratio (%) [3]: 63%; in vivo tumor proliferation inhibitory rate (%), GCN2 inhibitor ([4]; GCN2 inhibitor alone, 10 mg/kg oral twice per day for 9 days): 1%; in vivo tumor proliferation inhibitory rate (%), combined use ([4]; compound 10 mg/kg oral twice per day for 9 days combined with L-asparaginase 1000 U/kg s.c. once per day): 64%
